As a reminder, the EC50 is the concentration giving half of the maximal effect. A high value points to a need for much substance.

The source of these data is patent publication US9701645B2 (priority 2005, dated 2017).

For series [1], the system named is rats. Nature of the series: Seizure-like convulsant activity in rats. The class given is in vivo, rat. Conditions: oral doses up to 40 mg/kg, results not shown.
Series [2] relates to haloperidol-treated rats. In words: Locomotor activity in haloperidol treated rats. Format: in vivo, rat. Conditions: for Efficacy on locomotor activity (FIG. 1): compound 15 minutes after haloperidol, 1, 3, 10 or 30 mg/kg, total counts over 1 h. The method, then: (§1) Behavioral parameters were monitored in transparent shoebox cages that measured 45×25×20 cm, with a 1-cm depth of wood chips on the cage floor and a plastic grid on top of the cage. Rectangular photocell monitors with a bank of 3 photocell beams surrounded each test cage. Ambulations (locomotor activity: total number of beam breaks in 1 hour) were recorded by computer and stored for each test session.
(§2) Animals were administered injections of dextrose, reserpine or haloperidol. Formula (i) or Formula (ii) was then administered 18 hours after reserpine at doses of 3, 10 or 30 mg/kg or 15 minutes after haloperidol at doses of 1, 3, 10 or 30 mg/kg. Animals were monitored over a 60-min period in all instances, and data are expressed as total counts over the entire 1 h test period. […] In these studies, clinically effective therapies such as dopamine replacement therapy restore locomotor activity in dopamine-depleted or dopamine antagonist treated animals. Dopamine replacement therapy also, however, produces an overshoot in locomotor activity beyond the locomotor counts observed with normal control animals (with intact dopamine systems). This is considered the activating component of dopamine replacement therapy that results in dyskinesias in Parkinson's patients.

Series [3] addresses T1, delta receptor (Mus musculus, UniProt P32300).
T1 construct: vasa deferentia were isolated from male CD-1 mice; tissue Charles River; host or cells: isolated vas deferens of male CD-1 mice
Nature of the series: Intrinsic activity, electrically-induced contractions of mouse isolated vas deferens (MVD). The class given is cell-based. The procedure:
(§3) The basic pharmacology of the Formulas (i)-(iv) is described below in terms of receptor binding affinity (delta and mu receptors from rat whole brain homogenate; kappa receptors from guinea pig cerebellar homogenate), intrinsic activity in mouse isolated vas deferens (delta receptor) and guinea pig isolated ileum (mu receptor).
Tension development in isolated mouse vas deferens was measured as described previously (Chang et al., 1993). Following cervical dislocation, vasa deferentia were isolated from male CD-1 mice (Charles River, Raleigh, N.C.) weighing 20-25 g. Muscles were suspended in individual organ baths containing Mg-free Krebs-Henseleit solution (37° C., aerated with O2—CO2, 95:5) of the following composition (mM): NaCl, 117.5; KCl, 4.75; CaCl2, 2.6; KH2PO4, 1.2; NaHCO3, 24.5; and glucose, 11. The vas deferens segments were positioned between platinum electrodes (Radnoti Glassware Technology Inc., Monrovia, Calif.) and connected to a Grass (Grass-Telefactor, West Warwick, R.I.) FTO3 isometric force transducer under a resting tension of 0.5 g. Muscles were stimulated to contract by administering 400 msec pulse trains (1 msec duration, supramaximal voltage, 10 Hz) with a Grass S88 stimulator. An IC50 value for test compound inhibition of electrically-induced contractions was produced through the addition of cumulative concentrations of test compound to the bathing solution (Chang et al., 1993).
The ED50 values for formula (ii) were extrapolated from curves showing the dose concentration plotted against the response and are presented in FIG. 2.

Series [4] relates to Parkinson's disease rodent models. Nature of the series: Parkinson's disease rodent models (summary statements). The class given is in vivo, rat. Conditions: for Overshoot of locomotor activation beyond normal control animals: haloperidol- or reserpine-treated rats. The procedure: as §1, §2
An opioid receptor agonist selective for the delta receptor. • 2. Active in Parkinson's disease rodent models. • a. Potent at improving locomotor activity of haloperidol-treated rats. • b. Potent at improving locomotor activity in reserpine treated rats. • 3. Orally active in Parkinson's disease rodent models. • a.

For series [5], the target named is T2, kappa-opioid receptor (Cavia porcellus, UniProt P41144).
T2 construct: kappa receptors from guinea pig cerebellar homogenate; from tissue; host or cells: guinea pig cerebellar homogenate (membrane fractions)
T2 sequence (P41144 whole entry): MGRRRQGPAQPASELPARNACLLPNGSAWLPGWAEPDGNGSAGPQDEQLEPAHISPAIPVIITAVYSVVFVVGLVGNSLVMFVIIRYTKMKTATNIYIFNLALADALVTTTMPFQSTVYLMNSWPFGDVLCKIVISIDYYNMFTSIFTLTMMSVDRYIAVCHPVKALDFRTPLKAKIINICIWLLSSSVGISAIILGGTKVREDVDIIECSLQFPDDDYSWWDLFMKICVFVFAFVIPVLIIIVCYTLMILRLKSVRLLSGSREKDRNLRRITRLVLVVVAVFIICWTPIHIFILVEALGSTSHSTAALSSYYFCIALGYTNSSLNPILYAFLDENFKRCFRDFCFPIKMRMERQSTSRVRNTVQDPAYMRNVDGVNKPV
Nature of the series: Radioligand binding, kappa receptor ([3H]U69593). Set-up: species or system guinea pig. The method, then: as §3
(§4) Membrane fractions were incubated with test compound or naloxone (1×10^−6 M) plus 0.1 nM of the delta-opioid receptor agonist [^3H] DPDPE (specific activity 50.6 Ci/mmol), 0.1 nM of the mu-opioid receptor agonist [^3H]DAMGO (specific activity 50.0 Ci/mmol) or 0.1 nM of the kappa-opioid receptor agonist [^3H]U69593 (specific activity 41.4 Ci/mmol) in 2 ml of 10 mM Tris-HCl buffer containing 5 mM MgCl2 and protease inhibitors. Incubation was carried out for 90 min at 25° C. in order to permit the complete equilibration of the radioligand with its receptor. The reaction was terminated by rapid filtration through Whatman GF/C glass fiber filters using a cell harvester (model M-48R, Brandel Instruments, Gaithersberg, Md.) followed by two 5 ml rinses with ice-cold 50 mM Tris buffer. Non-specific binding was defined as that radioligand bound in the presence of 1×10^−6 M naloxone.

Series [6] relates to reserpine treated rats. In words: Locomotor activity in reserpine treated rats. Format: in vivo, rat. The conditions noted are these: compound 18 hours after reserpine, 3, 10 or 30 mg/kg, total counts over 1 h. The procedure: as §1, §2
Series [7] has as its target T3, mu-opioid receptor (Rattus norvegicus, UniProt P33535).
T3 construct: delta and mu receptors from rat whole brain homogenate; from tissue; host or cells: rat whole brain homogenate (membrane fractions)
Nature of the series: Radioligand binding, mu receptor ([3H]DAMGO). The method, then:
as §3, §4

The target of series [8] is T4, delta-opioid receptor (Rattus norvegicus, UniProt P33533).
T4 construct: delta and mu receptors from rat whole brain homogenate; from tissue; host or cells: rat whole brain homogenate (membrane fractions)
T4 sequence (P33533 whole entry): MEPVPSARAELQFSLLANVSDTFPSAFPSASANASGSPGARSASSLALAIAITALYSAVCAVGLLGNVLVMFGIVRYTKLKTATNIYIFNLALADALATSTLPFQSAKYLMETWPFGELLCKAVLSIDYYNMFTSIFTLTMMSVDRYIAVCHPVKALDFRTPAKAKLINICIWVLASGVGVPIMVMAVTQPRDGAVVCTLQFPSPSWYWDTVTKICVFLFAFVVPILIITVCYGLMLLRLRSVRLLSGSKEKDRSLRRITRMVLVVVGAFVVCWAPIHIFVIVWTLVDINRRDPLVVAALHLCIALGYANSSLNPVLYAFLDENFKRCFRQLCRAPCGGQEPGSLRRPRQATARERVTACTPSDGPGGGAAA
Nature of the series: Radioligand binding, delta receptor ([3H]DPDPE). The method, then: as §3, §4

Series [9] concerns mice. Nature of the series: Seizure-like convulsion incidence in mice. Format: in vivo, mouse. The text has this:
One of the most obvious side-effects of potent delta agonists that rapidly penetrate the blood brain barrier is convulsive episodes reminiscent of possible seizure-like brain activity. The mouse is the chosen species for study of these effects since the mouse is the most highly convulsion-sensitive rodent species and mice present with a clear and obvious, whole body tonic-clonic convulsion. One of the earliest phases of delta agonist safety assessments is thus the determination of the convulsion threshold in mice.

Series [10] concerns MPTP-lesioned primate (marmosets) model of Parkinson's disease. The conditions noted are these: 10 mg/kg i.p., without attenuation of the anti-parkinsonian actions of L-DOPA; cited from earlier work.

Read-outs that look alike come from different tables or passages of the source.

T3 sequence (P33535 whole entry): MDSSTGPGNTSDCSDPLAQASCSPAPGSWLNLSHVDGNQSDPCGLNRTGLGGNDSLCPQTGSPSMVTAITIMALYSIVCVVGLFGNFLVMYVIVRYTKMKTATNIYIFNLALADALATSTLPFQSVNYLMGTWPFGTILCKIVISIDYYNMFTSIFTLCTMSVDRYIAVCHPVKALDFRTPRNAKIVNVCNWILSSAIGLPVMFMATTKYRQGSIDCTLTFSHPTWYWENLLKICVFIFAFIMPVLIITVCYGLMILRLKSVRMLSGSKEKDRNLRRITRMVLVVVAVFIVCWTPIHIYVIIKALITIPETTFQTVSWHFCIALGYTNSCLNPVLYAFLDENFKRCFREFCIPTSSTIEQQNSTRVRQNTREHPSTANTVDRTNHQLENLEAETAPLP
T1 sequence (P32300 whole entry): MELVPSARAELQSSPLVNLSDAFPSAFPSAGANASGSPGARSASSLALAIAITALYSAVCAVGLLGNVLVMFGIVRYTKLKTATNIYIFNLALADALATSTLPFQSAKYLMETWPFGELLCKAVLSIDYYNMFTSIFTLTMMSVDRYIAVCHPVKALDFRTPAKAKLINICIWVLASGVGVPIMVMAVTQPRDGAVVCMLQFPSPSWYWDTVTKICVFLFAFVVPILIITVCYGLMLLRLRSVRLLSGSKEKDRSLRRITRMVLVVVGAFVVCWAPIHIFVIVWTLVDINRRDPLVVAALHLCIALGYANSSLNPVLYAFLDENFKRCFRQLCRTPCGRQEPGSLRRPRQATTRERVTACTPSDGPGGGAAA

Turning to `CCN(CC)C(=O)c1ccc([C@H](c2cccc(O)c2)N2C[C@@H](C)N(Cc3cccc(F)c3)C[C@@H]2C)cc1` [Formula (i), 4-((alpha-R)-alpha-((2S,5R)-2,5-Dimethyl-4-(3-fluorobenzyl)-1-piperazinyl)-3-hydroxybenzyl)-N,N-diethylbenzamide], the “Oral seizure-like convulsant activity in rats” value in series [1] was “no oral-seizure-like convulsant activity”. Further, the “Efficacy on locomotor activity (FIG. 1)” value in [2] (haloperidol treated rats) and in series [6] was “clear efficacy” in each case. Also, the midpoint of the response in [3], the EC50, lay at 2.6 nM. In addition, the “Overshoot of locomotor activation beyond normal control animals” value in series [4] is listed as “No evidence for overshoot of locomotor activation”. The “Oral activity in Parkinson's disease rodent models” value in series [4] is reported as “Orally active”. Moreover, the results for the Ki in series [5], in series [7] and in [8] were 567 nM, 11.6 nM and 0.73 nM, respectively. In addition, in series [7], the “Binding affinity for the mu receptor compared to SNC80” value is reported as “increased binding affinity”. The “Binding affinity for the delta receptor compared to SNC80” value in series [8] is listed as “increased binding affinity”. In addition, the “Seizure-like convulsion incidence in mice (% of animals treated)” value in series [9] (Intravenous 0.3 mg/kg) was determined as 0%; in series [9] (Intravenous 1 mg/kg) it was 50%; in series [9] (Intravenous 3 mg/kg) it was 40%; in [9] (Oral 15 mg/kg), 23%. Further, in [9], the “Seizure activity in mice relative to SNC80” value is on record as “reduced relative to SNC80”.

Regarding `CCN(CC)C(=O)c1ccc([C@H](c2cccc(O)c2)N2C[C@@H](C)N(Cc3ccccc3F)C[C@@H]2C)cc1` [Formula (ii), 4-((Alpha-R)-Alpha-((2S,5R)-2,5-Dimethyl-4-(2-fluorobenzyl)-1-piperazinyl)-3-hydroxybenzyl)-N,N-diethylbenzamide], the “Efficacy on locomotor activity (FIG. 1)” value in [2] (haloperidol treated rats) and in series [6] was “clear efficacy” in each case. Also, the “Beneficial effects in presence of delta receptor antagonist naltrindole (FIG. 4)” value in series [2] (haloperidol treated rats, with naltrindole (NTI)) is recorded as “completely blocked”. Also, in [2] (haloperidol-treated rats, i.p. (intraperitoneal)), the “Anti-parkinsonian syndrome effects (FIG. 3B)” value was “shows potency”. Moreover, the “Anti-parkinsonian syndrome effects (FIG. 3A)” value in [2] (haloperidol-treated rats, p.o. (oral, by gavage)) was “shows potency”. Moreover, the EC50 in series [3] was determined as 3 nM. Moreover, in series [4], the “Overshoot of locomotor activation beyond normal control animals” value is recorded as “No evidence for overshoot of locomotor activation”. In [4], the “Oral activity in Parkinson's disease rodent models” value is reported as “Orally active”. Moreover, the Ki was found to be 171 nM in [5]; 7.8 nM in series [7]; 0.77 nM in series [8] (rat whole brain homogenate, 0.1 nM [3H]DPDPE, read-out: Receptor Binding Affinity, Ki Delta). In addition, the “Binding affinity for the mu receptor compared to SNC80” value in [7] is recorded as “increased binding affinity”. Also, the “Binding affinity for the delta receptor compared to SNC80” value in [8] is “increased binding affinity”. For the same molecule, the “Seizure-like convulsion incidence in mice (% of animals treated)” value in series [9] (Intravenous 1 mg/kg) was found to be 0%; in series [9] (Intravenous 3 mg/kg), 30%; in series [9] (Oral 15 mg/kg), 20%; in series [9] (Oral 30 mg/kg) it was 20%; in [9] (Oral 60 mg/kg) it was 30%. In series [9], the “Seizure activity in mice relative to SNC80” value is “reduced relative to SNC80”.

As for `CCN(CC)C(=O)c1ccc([C@H](c2cccc(OC)c2)N2C[C@@H](C)N(Cc3cccc(F)c3)C[C@@H]2C)cc1` [Formula (iii), 4-((alpha-R)-alpha-((2S,5R)-2,5-Dimethyl-4-(3-fluorobenzyl)-1-piperazinyl)-3-methoxybenzyl)-N,N-diethylbenzamide], the EC50 in series [3] is 29 nM. The Ki in [5] is 100 nM; in series [7], 5000 nM; in series [8] it was 5.6 nM. In addition, the “Seizure-like convulsion incidence in mice (% of animals treated)” value in [9] (Intravenous 3 mg/kg) is listed as 20%; in series [9] (Oral 60 mg/kg) it was 0%.

With `CCN(CC)C(=O)c1ccc([C@H](c2cccc(OC)c2)N2C[C@@H](C)N(Cc3ccccc3F)C[C@@H]2C)cc1` [Formula (iv), 4-((alpha-R)-alpha-((2S,5R)-2,5-Dimethyl-4-(2-fluorobenzyl)-1-piperazinyl)-3-methoxybenzyl)-N,N-diethylbenzamide], in series [3], the half-maximal effective concentration (EC50) stood at 4.1 nM. Also, the Ki in series [5] was determined as 100 nM; in series [7] it was 5000 nM; in [8] it was 4.2 nM. The “Seizure-like convulsion incidence in mice (% of animals treated)” value in [9] (Intravenous 1 mg/kg) stood at 0%; in [9] (Intravenous 3 mg/kg), 20%; in [9] (Oral 30 mg/kg), 0%; in [9] (Oral 60 mg/kg), 10%.

With `COc1cccc2c1[C@]13CCN(CC4CC4)[C@H](C2)[C@]1(OC)CCC(=O)C3` [cyprodime], the L-DOPA-induced dyskinesia result in series [10] is reported as “reduce completely”.

Consider `Oc1ccc2c3c1O[C@H]1c4[nH]c5ccccc5c4C[C@@]4(O)[C@@H](C2)N(CC2CC2)CC[C@]314` [naltrindole, reference compound], for which, in [2] (naltrindole alone), the “Effect alone in haloperidol treated rats (FIG. 4)” value is listed as “no effect”.
